# In ChEMBL document CHEMBL5380773, “Novel Feleucin-K3-Derived Peptides Modified with Sulfono-γ-AA Building Blocks Targeting Pseudomonas aeruginosa and Methicillin-Resistant Staphylococcus aureus Infections” (J Med Chem, 2023):
# Numbered stars: 1 amine (or outer) side, 2 acyl side, 3 side chain; on linkers, the order of the positions; unused ones are H or OH. Square brackets hold non-standard residues; d marks the D form. Peptide text beside a SMILES is read from it. * marks the point of attachment. X14 = CC(C)C[C@@H](CN(CC(N)=O)S(=O)(=O)c1c(C(C)C)cc(C(C)C)cc1C(C)C)N*; X11 = CC(C)C[C@@H](CN(CC(N)=O)S(=O)(=O)c1ccc([N+](=O)[O-])cc1)N*; X13 = NC(=O)CN(C[C@H](Cc1ccccc1)N*)S(=O)(=O)c1ccc(Br)cc1; X19 = COc1ccc(S(=O)(=O)N(CC(N)=O)C[C@H](Cc2ccccc2)N*)cc1; X15 = NC(=O)CN(C[C@H](Cc1ccccc1)N*)S(=O)(=O)c1ccc(I)cc1; X24 = Cc1ccc(S(=O)(=O)N(CC(N)=O)C[C@H](Cc2ccccc2)N*)cc1; X7 = NC(=O)CN(C[C@H](Cc1ccccc1)N*)S(=O)(=O)c1cccc(Cl)c1; X6 = COc1ccc(S(=O)(=O)N(CC(N)=O)C[C@H](CC(C)C)N*)cc1; Benzenesulfonyl(4-OMe) = COc1ccc(S(=O)(=O)*)cc1; X3 = N[C@@H](Cc1ccccc1)CN(CC(=O)[*:2])[*:1]; X2 = CC(C)C[C@H](N)CN(CC(=O)[*:2])[*:1]; X10 = O=[N+]([O-])c1ccc(S(=O)(=O)*)cc1; Tos = Cc1ccc(S(=O)(=O)*)cc1; X1 = O=S(=O)(c1ccc(I)cc1)*
# Tested on: Erythrocyte
# Experiment: Hemolytic activity against mouse red blood cells incubated for 1 hr
# Assay type: toxicity, cell-based
row,Compound,MHC
1,CC(C)C[C@H](NC(=O)[C@H](CC(C)C)NC(=O)[C@H](CCCCN)NC(=O)[C@H](CC(C)C)NC(=O)[C@@H](N)Cc1ccccc1)C(=O)N[C@@H](CCCCN)C(=O)N[C@@H](CCCCN)C(=O)N[C@@H](Cc1ccccc1)CN(CC(N)=O)S(=O)(=O)c1cccc(Cl)c1 (H-FLKLLKK-X7),256 µg/mL
2,COc1ccc(S(=O)(=O)N(CC(N)=O)C[C@H](CC(C)C)NC(=O)[C@H](CCCCN)NC(=O)[C@H](CCCCN)NC(=O)[C@H](CC(C)C)NC(=O)[C@H](CC(C)C)NC(=O)[C@H](CCCCN)NC(=O)[C@H](CC(C)C)NC(=O)[C@@H](N)Cc2ccccc2)cc1 (H-FLKLLKK-X6),256 µg/mL
3,COc1ccc(S(=O)(=O)N(CC(N)=O)C[C@H](Cc2ccccc2)NC(=O)[C@H](CCCCN)NC(=O)[C@H](CCCCN)NC(=O)[C@H](CC(C)C)NC(=O)[C@H](CC(C)C)NC(=O)[C@H](CCCCN)NC(=O)[C@H](CC(C)C)NC(=O)[C@@H](N)Cc2ccccc2)cc1 (H-FLKLLKK-X19),256 µg/mL
4,CC(C)C[C@H](NC(=O)[C@H](CC(C)C)NC(=O)[C@H](CCCCN)NC(=O)[C@H](CC(C)C)NC(=O)[C@@H](N)Cc1ccccc1)C(=O)N[C@@H](CCCCN)C(=O)N[C@@H](CCCCN)C(=O)N[C@@H](Cc1ccccc1)CN(CC(N)=O)S(=O)(=O)c1ccc(Br)cc1 (H-FLKLLKK-X13),256 µg/mL
5,CC(C)C[C@H](NC(=O)[C@H](CC(C)C)NC(=O)[C@H](CCCCN)NC(=O)[C@H](CCCCN)NC(=O)[C@H](CC(C)C)NC(=O)[C@H](CC(C)C)NC(=O)[C@H](CCCCN)NC(=O)CN(C[C@@H](N)Cc1ccccc1)S(=O)(=O)c1ccc(I)cc1)C(N)=O (X1-[X3]KLLKKLL-NH2),32 µg/mL
6,Cc1ccc(S(=O)(=O)N(CC(N)=O)C[C@H](Cc2ccccc2)NC(=O)[C@H](CCCCN)NC(=O)[C@H](CCCCN)NC(=O)[C@H](CC(C)C)NC(=O)[C@H](CC(C)C)NC(=O)[C@H](CCCCN)NC(=O)[C@H](CC(C)C)NC(=O)[C@@H](N)Cc2ccccc2)cc1 (H-FLKLLKK-X24),256 µg/mL
7,CC(C)C[C@H](N)CN(CC(=O)N[C@@H](CCCCN)C(=O)N[C@@H](CC(C)C)C(=O)N[C@@H](CC(C)C)C(=O)N[C@@H](CCCCN)C(=O)N[C@@H](CCCCN)C(=O)N[C@@H](CC(C)C)C(=O)N[C@@H](CC(C)C)C(N)=O)S(=O)(=O)c1ccc([N+](=O)[O-])cc1 (X10-[X2]KLLKKLL-NH2),256 µg/mL
8,CC(C)C[C@H](NC(=O)[C@H](CC(C)C)NC(=O)[C@H](CCCCN)NC(=O)[C@H](CC(C)C)NC(=O)[C@@H](N)Cc1ccccc1)C(=O)N[C@@H](CCCCN)C(=O)N[C@@H](CCCCN)C(=O)N[C@@H](Cc1ccccc1)CN(CC(N)=O)S(=O)(=O)c1ccc(I)cc1 (H-FLKLLKK-X15),128 µg/mL
9,CC(C)C[C@@H](CN(CC(N)=O)S(=O)(=O)c1ccc([N+](=O)[O-])cc1)NC(=O)[C@H](CCCCN)NC(=O)[C@H](CCCCN)NC(=O)[C@H](CC(C)C)NC(=O)[C@H](CC(C)C)NC(=O)[C@H](CCCCN)NC(=O)[C@H](CC(C)C)NC(=O)[C@@H](N)Cc1ccccc1 (H-FLKLLKK-X11),256 µg/mL
10,COc1ccc(S(=O)(=O)N(CC(=O)N[C@@H](CCCCN)C(=O)N[C@@H](CC(C)C)C(=O)N[C@@H](CC(C)C)C(=O)N[C@@H](CCCCN)C(=O)N[C@@H](CCCCN)C(=O)N[C@@H](CC(C)C)C(=O)N[C@@H](CC(C)C)C(N)=O)C[C@@H](N)Cc2ccccc2)cc1 ({Benzenesulfonyl(4-OMe)}-[X3]KLLKKLL-NH2),256 µg/mL
11,CC(C)C[C@@H](CN(CC(N)=O)S(=O)(=O)c1c(C(C)C)cc(C(C)C)cc1C(C)C)NC(=O)[C@H](CCCCN)NC(=O)[C@H](CCCCN)NC(=O)[C@H](CC(C)C)NC(=O)[C@H](CC(C)C)NC(=O)[C@H](CCCCN)NC(=O)[C@H](CC(C)C)NC(=O)[C@@H](N)Cc1ccccc1 (H-FLKLLKK-X14),32 µg/mL
12,Cc1ccc(S(=O)(=O)N(CC(=O)N[C@@H](CCCCN)C(=O)N[C@@H](CC(C)C)C(=O)N[C@@H](CC(C)C)C(=O)N[C@@H](CCCCN)C(=O)N[C@@H](CCCCN)C(=O)N[C@@H](CC(C)C)C(=O)N[C@@H](CC(C)C)C(N)=O)C[C@@H](N)CC(C)C)cc1 (Tos-[X2]KLLKKLL-NH2),32 µg/mL
